Laboratory results published in PMC9951859, “Investigation of α,ω-Disubstituted Polyamine-Cholic Acid Conjugates Identifies Hyodeoxycholic and Chenodeoxycholic Scaffolds as Non-Toxic, Potent Antimicrobials” (Antibiotics, 2023).
pIC50: −log10 of the molar value.

Columns and labels:
[1] = test system: human red blood cells; test: Hemolytic assay; type: cell-based; conditions: concentration at 10% hemolytic activity on human red blood cells; mean (n = 2); top dose tested 32 μg/mL
Experimental: Hemolytic assays were conducted using the protocols previously reported.

[2] = test system: Pseudomonas aeruginosa ATCC 27853; test: Antimicrobial MIC assay (CO-ADD) against P. aeruginosa; type: cell-based; conditions: Pseudomonas aeruginosa, ATCC27853, read-out: MIC P.a.
[3] = test system: Staphylococcus aureus ATCC 43300 (MRSA); test: Antimicrobial MIC assay (CO-ADD) against S. aureus MRSA; type: cell-based; conditions: Staphylococcus aureus, read-out: MIC S.a.
Source text: (§1) Antimicrobial evaluation against S. aureus (MRSA) (ATCC 43300), E. coli (ATCC 25922), K. pneumoniae (ATCC 700603), A. baumannii (ATCC 19606), C. albicans (ATCC 90028), and C. neoformans (ATCC 208821) was undertaken at the Community for Open Antimicrobial Drug Discovery at The University of Queensland (Australia) according to their standard protocols as reported previously.

[4] = test system: Escherichia coli ATCC 25922; test: Antimicrobial MIC assay (CO-ADD) against E. coli; type: cell-based; conditions: Escherichia coli, ATCC25922, read-out: MIC E.c.
Source text: as §1

[5] = Cytotoxicity assay on HEK293; type: cell-based, human; conditions: human, HEK293 human embryonic kidney cells; concentration at 50% cytotoxicity on HEK293; mean (n = 2); top dose tested 32 μg/mL
Experimental: (§2) Cytotoxicity assays were conducted using the protocols previously reported.

[6] = test system: HEK293 human embryonic kidney cells; test: Cytotoxicity assay on HEK293; type: cell-based; conditions: concentration at 50% cytotoxicity on HEK293; mean (n = 2); top dose tested 32 μg/mL
Experimental: as §2

[7] = test system: Candida albicans ATCC 90028; test: Antimicrobial MIC assay (CO-ADD) against C. albicans; type: cell-based; conditions: Candida albicans, ATCC90028, read-out: MIC C.a., Candida albicans ATCC 90028; mean (n = 2)
Source text: as §1

[8] = test system: Klebsiella pneumoniae ATCC 700603; test: Antimicrobial MIC assay (CO-ADD) against K. pneumoniae; type: cell-based; conditions: Klebsiella pneumoniae, ATCC700603, read-out: MIC K.p.
Source text: as §1

[9] = test system: Acinetobacter baumannii ATCC 19606; test: Antimicrobial MIC assay (CO-ADD) against A. baumannii; type: cell-based; conditions: Acinetobacter baumannii, ATCC19606, read-out: MIC A.b.
Source text: as §1

[10] = test system: Cryptococcus neoformans ATCC 208821; test: Antimicrobial MIC assay (CO-ADD) against C. neoformans; type: cell-based; conditions: Cryptococcus neoformans, ATCC208821, read-out: MIC C.n.
Source text: as §1

[11] = test system: P. aeruginosa ATCC 27853; test: Antibiotic enhancement of doxycycline; type: cell-based, Pseudomonas aeruginosa; conditions: doxycycline at 2 μg/mL
Experimental: (§3) Restoring enhancer concentrations were determined with an inoculum of 5 × 10^5 CFU in […] of MH broth containing two-fold serial dilutions of each derivative in the presence of either doxycycline or erythromycin at 2 μg/mL. […] These measurements were independently repeated in triplicate.

[12] = test system: E. coli ATCC 25922; test: Antibiotic enhancement of erythromycin; type: cell-based, Escherichia coli; conditions: erythromycin at 2 μg/mL
Experimental: as §3

[13] = test system: S. aureus; test: ATP release bioluminescence assay; type: cell-based, Staphylococcus aureus; conditions: followed over 30 min after exposure, CTAB (1%) positive control
Experimental: Solutions of the test compound 7e were prepared in DMSO at various concentrations. A suspension of growing S. aureus to be studied in Muller-Hinton II broth was prepared and incubated at 37 °C. An aliquot (90 µL) of this suspension was added to 10 µL of test compound solution and vortexed for 10 s. Luciferin–luciferase reagent (Yelen, France; 50 µL) was immediately added to this mixture, and luminescent signal quantified with an Infinite M200 microplate reader (Tecan) over a 30 min period; ATP concentration was quantified using internal sample addition. A similar procedure was used for the CTAB positive control.

| SMILES | Hemolysis (HC10) [1] [µM] | MIC [2] [µM] | MIC [3] [µM] | MIC [4] [µM] | pIC50 [5] | Cytotoxicity (IC50) [6] | MIC [7] [µM] | MIC [8] [µM] | MIC [9] [µM] | MIC [10] [µM] | enhancement of antibiotic activity of doxycycline [11] | enhancement of antibiotic activity of erythromycin [12] | ATP release (extracellular ATP, bioluminescence) [13] |
| --- | --- | --- | --- | --- | --- | --- | --- | --- | --- | --- | --- | --- | --- |
| C[C@H](CCC(=O)NCCCNCCCCCCCCCCCCNCCCNC(=O)CC[C@@H](C)[C@H]1CC[C@H]2[C@@H]3[C@@H](O)C[C@@H]4C[C@H](O)CC[C@]4(C)[C@H]3CC[C@]12C)[C@H]1CC[C@H]2[C@@H]3[C@@H](O)C[C@@H]4C[C@H](O)CC[C@]4(C)[C@H]3CC[C@]12C.O=C(O)C(F)(F)F.O=C(O)C(F)(F)F [Compound 8f, N^1,N^12-Bis(3-((R)-4-((3R,5S,7S,8R,9S,10S,13R,14S,17R)-3,7-dihydroxy-10,13-dimethylhexadecahydro-1H-cyclopenta[a]phenanthren-17-yl)pentanamido)propyl)dodecane-1,12-diaminium 2,2,2-trifluoroacetate] | 1.4 | > 25 | ≤ 0.19 | > 25 | 5.08 | exhibiting cytotoxic properties | 3.1 | > 25 | > 25 | ≤ 0.19 | – | – | – |
| C[C@H](CCC(=O)NCCCNCCCCNCCCNC(=O)CC[C@@H](C)[C@H]1CC[C@H]2[C@@H]3[C@H](O)C[C@@H]4C[C@H](O)CC[C@]4(C)[C@H]3CC[C@]12C)[C@H]1CC[C@H]2[C@@H]3[C@H](O)C[C@@H]4C[C@H](O)CC[C@]4(C)[C@H]3CC[C@]12C.O=C(O)C(F)(F)F.O=C(O)C(F)(F)F [Compound 9a, N^1,N^4-Bis(3-((R)-4-((3R,5S,7R,8R,9S,10S,13R,14S,17R)-3,7-dihydroxy-10,13-dimethylhexadecahydro-1H-cyclopenta[a]phenanthren-17-yl)pentanamido)propyl)butane-1,4-diaminium 2,2,2-trifluoroacetate] | – | > 27 | ≤ 0.21 | 6.8 | 4.57 | devoid of cytotoxicity | ≤ 0.21 | > 27 | 27 | ≤ 0.21 | – | – | – |
| C[C@H](CCC(=O)NCCCNCCCCCCCCNCCCNC(=O)CC[C@@H](C)[C@H]1CC[C@H]2[C@@H]3C[C@H](O)[C@@H]4C[C@H](O)CC[C@]4(C)[C@H]3CC[C@]12C)[C@H]1CC[C@H]2[C@@H]3C[C@H](O)[C@@H]4C[C@H](O)CC[C@]4(C)[C@H]3CC[C@]12C.O=C(O)C(F)(F)F.O=C(O)C(F)(F)F [Compound 7d, N^1,N^8-Bis(3-((R)-4-((3R,5R,6S,8S,9S,10R,13R,14S,17R)-3,6-dihydroxy-10,13-dimethylhexadecahydro-1H-cyclopenta[a]phenanthren-17-yl)pentanamido)propyl)octane-1,8-diaminium 2,2,2-trifluoroacetate] | >26 | > 26 | ≤ 0.2 | > 26 | < 4.59 | – | 13 | > 26 | > 26 | ≤ 0.2 | No enhancement was observed | No enhancement was observed | – |
| C[C@H](CCC(=O)NCCCNCCCCCCCNCCCNC(=O)CC[C@@H](C)[C@H]1CC[C@H]2[C@@H]3C[C@H](O)[C@@H]4C[C@H](O)CC[C@]4(C)[C@H]3CC[C@]12C)[C@H]1CC[C@H]2[C@@H]3C[C@H](O)[C@@H]4C[C@H](O)CC[C@]4(C)[C@H]3CC[C@]12C.O=C(O)C(F)(F)F.O=C(O)C(F)(F)F [Compound 7c, N^1,N^7-Bis(3-((R)-4-((3R,5R,6S,8S,9S,10R,13R,14S,17R)-3,6-dihydroxy-10,13-dimethylhexadecahydro-1H-cyclopenta[a]phenanthren-17-yl)pentanamido)propyl)heptane-1,7-diaminium 2,2,2-trifluoroacetate] | >26 | > 26 | ≤ 0.21 | > 26 | < 4.59 | – | 13 | > 26 | > 26 | ≤ 0.21 | No enhancement was observed | No enhancement was observed | – |
| CCCCCCCCCCCCCCCC[N+](C)(C)C [CTAB, cetyltrimethylammonium bromide, reference compound] | – | – | – | – | – | – | – | – | – | – | – | – | dramatically disrupted the S. aureus membrane after 2 min |
